Measured values published in the supplement of paper PMC11451515.

System: NOMO1
Experiment: cell viability relative to DMSO control; higher = less cytotoxic
Conditions: 48 h
Method in brief: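 Three leukemia lines were tested: NOMO1 and SEM at 500 cells/well and P12-Ichikawa at 1000 cells/well. Each was adapted for at least four passages in each medium and seeded in 5 μl in 1536-well plates, and library compounds in DMSO were pin-dosed from 47 μM to 0.79 nM in 11 threefold steps. After 48 h at 37°C, CellTiter-Glo One luminescence was read. Viability is a percentage relative to DMSO wells on each plate, with cell-free wells as background.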

[1] = HPLM + 10% dialyzed FBS, 0.000781 µM
[2] = HPLM + 10% dialyzed FBS, 0.00234 µM
[3] = HPLM + 10% dialyzed FBS, 0.00702 µM
[4] = HPLM + 10% dialyzed FBS, 0.0211 µM
[5] = HPLM + 10% dialyzed FBS, 0.0632 µM
[6] = HPLM + 10% dialyzed FBS, 0.19 µM
[7] = HPLM + 10% dialyzed FBS, 0.569 µM
[8] = HPLM + 10% dialyzed FBS, 1.71 µM
[9] = HPLM + 10% dialyzed FBS, 5.12 µM
[10] = HPLM + 10% dialyzed FBS, 15.4 µM
[11] = HPLM + 10% dialyzed FBS, 46.1 µM
[12] = RPMI 5 mM glucose + 10% FBS, 0.000781 µM
[13] = RPMI 5 mM glucose + 10% FBS, 0.00234 µM
[14] = RPMI 5 mM glucose + 10% FBS, 0.00702 µM
[15] = RPMI 5 mM glucose + 10% FBS, 0.0211 µM
[16] = RPMI 5 mM glucose + 10% FBS, 0.0632 µM
[17] = RPMI 5 mM glucose + 10% FBS, 0.19 µM
[18] = RPMI 5 mM glucose + 10% FBS, 0.569 µM
[19] = RPMI 5 mM glucose + 10% FBS, 1.71 µM
[20] = RPMI 5 mM glucose + 10% FBS, 5.12 µM
[21] = RPMI 5 mM glucose + 10% FBS, 15.4 µM
[22] = RPMI 5 mM glucose + 10% FBS, 46.1 µM
[23] = RPMI 5 mM glucose + 10% dialyzed FBS, 0.000781 µM
[24] = RPMI 5 mM glucose + 10% dialyzed FBS, 0.00234 µM
[25] = RPMI 5 mM glucose + 10% dialyzed FBS, 0.00702 µM
[26] = RPMI 5 mM glucose + 10% dialyzed FBS, 0.0211 µM
[27] = RPMI 5 mM glucose + 10% dialyzed FBS, 0.0632 µM
[28] = RPMI 5 mM glucose + 10% dialyzed FBS, 0.19 µM
[29] = RPMI 5 mM glucose + 10% dialyzed FBS, 0.569 µM
[30] = RPMI 5 mM glucose + 10% dialyzed FBS, 1.71 µM
[31] = RPMI 5 mM glucose + 10% dialyzed FBS, 5.12 µM
[32] = RPMI 5 mM glucose + 10% dialyzed FBS, 15.4 µM
[33] = RPMI 5 mM glucose + 10% dialyzed FBS, 46.1 µM

Compound | cell viability [1] | cell viability [2] | cell viability [3] | cell viability [4] | cell viability [5] | cell viability [6] | cell viability [7] | cell viability [8] | cell viability [9] | cell viability [10] | cell viability [11] | cell viability [12] | cell viability [13] | cell viability [14] | cell viability [15] | cell viability [16] | cell viability [17] | cell viability [18] | cell viability [19] | cell viability [20] | cell viability [21] | cell viability [22] | cell viability [23] | cell viability [24] | cell viability [25] | cell viability [26] | cell viability [27] | cell viability [28] | cell viability [29] | cell viability [30] | cell viability [31] | cell viability [32] | cell viability [33]
COC1=C(N2CCNC(C)C2)C(=CC3=C1N(\C=C(C(O)=O)/C3=O)C4CC4)F (stereo not given) | 89.4% | 82.7% | 103% | 115% | 105% | 123% | 103% | 117% | 95.2% | 92.8% | 77.2% | 100% | 87.7% | 88.6% | 99.5% | 96% | 96.8% | 96.6% | 104% | 20.3% | 111% | 103% | 97.6% | 86.9% | 98.2% | 94.3% | 100% | 110% | 94% | 99.3% | 74.2% | 99.1% | 95.8%
CC(C)(C)c1cc(NC(=O)Nc2ccc(-c3cn4c(n3)sc3cc(OCCN5CCOCC5)ccc34)cc2)no1 | 92.8% | 93.9% | 90.5% | 104% | 101% | 102% | 87.3% | 99.7% | 110% | 123% | 96.5% | 76.8% | 76% | 85.1% | 88.3% | 82% | 79.2% | 81.4% | 87% | 81.4% | 81.8% | 88.5% | 85.1% | 94.8% | 101% | 82.3% | 90.5% | 90.8% | 90.8% | 93.1% | 92.9% | 92.1% | 89.7%
CC/C(=C(/c1ccc(O)cc1)c1ccc(OCCNC)cc1)c1ccccc1 | 99.4% | 98.4% | 98% | 103% | 106% | 130% | 113% | 123% | 90.8% | 75.9% | 47.1% | 102% | 97.2% | 120% | 108% | 114% | 97.9% | 117% | 122% | 108% | 100% | 45.8% | 103% | 99.7% | 102% | 115% | 101% | 106% | 111% | 104% | 96.2% | 84.3% | 55.6%
CN(C)CCOc1cc(-c2cn[nH]c2)ccc1NC(=O)C1COc2ccccc2O1 (stereo not given) | 84.2% | 104% | 118% | 122% | 118% | 106% | 119% | 107% | 122% | 93.9% | 67.1% | 105% | 93.2% | 110% | 127% | 94.7% | 97.5% | 114% | 96.3% | 85.4% | 81.5% | 64.3% | 98.5% | 100% | 106% | 112% | 114% | 97.7% | 102% | 96.9% | 91.5% | 71.8% | 77%
CCN(CC)CC#CCOC(=O)C(O)(c1ccccc1)C1CCCCC1 (stereo not given) | – | – | – | – | – | – | – | – | – | – | – | 133% | 115% | 122% | 113% | 138% | 127% | 117% | 137% | 120% | 125% | 117% | 128% | 121% | 120% | 124% | 140% | 123% | 140% | 132% | 135% | 134% | 120%
CCc1cc(Nc2nccc(-c3c(-c4ccc(OC)c(C(=O)Nc5c(F)cccc5F)c4)nc4ccccn34)n2)c(OC)cc1N1CCC(N2CCN([S+](C)(=O)[O-])CC2)CC1 | 101% | 95.2% | 103% | 104% | 105% | 96.7% | 114% | 120% | 103% | 96% | 43.2% | 101% | 91.5% | 92.7% | 95.3% | 94.6% | 102% | 114% | 106% | 101% | 111% | 44.6% | 84.8% | 90.1% | 94.8% | 101% | 104% | 86% | 102% | 107% | 109% | 98.3% | 65.5%
Cc1nc(NC(=O)N2CCC[C@H]2C(N)=O)sc1-c1ccnc(C(C)(C)C(F)(F)F)c1 | 99.5% | 96.2% | 105% | 81.2% | 85.9% | 81.5% | 75.9% | 70.1% | 46.2% | 44.4% | 71.7% | 86.8% | 84.8% | 88% | 82.7% | 87.5% | 80.2% | 79.4% | 77.8% | 56.3% | 55.3% | 82.5% | 79.6% | 84.8% | 82.2% | 76.8% | 82.2% | 75.6% | 67.8% | 69.2% | 48.3% | 48.2% | 87.7%
